By IC50 is commonly meant the concentration needed to halve the response being measured.

Assay [1] concerns the target T1, CD73 on U138 human neuroglioma cells (Homo sapiens, UniProt P21589).
T1 construct: U138 cells were obtained from ATCC and cultured in DMEM with 10% FBS; host or cells: U138 human neuroglioma cells
T1 sequence (P21589 27-549): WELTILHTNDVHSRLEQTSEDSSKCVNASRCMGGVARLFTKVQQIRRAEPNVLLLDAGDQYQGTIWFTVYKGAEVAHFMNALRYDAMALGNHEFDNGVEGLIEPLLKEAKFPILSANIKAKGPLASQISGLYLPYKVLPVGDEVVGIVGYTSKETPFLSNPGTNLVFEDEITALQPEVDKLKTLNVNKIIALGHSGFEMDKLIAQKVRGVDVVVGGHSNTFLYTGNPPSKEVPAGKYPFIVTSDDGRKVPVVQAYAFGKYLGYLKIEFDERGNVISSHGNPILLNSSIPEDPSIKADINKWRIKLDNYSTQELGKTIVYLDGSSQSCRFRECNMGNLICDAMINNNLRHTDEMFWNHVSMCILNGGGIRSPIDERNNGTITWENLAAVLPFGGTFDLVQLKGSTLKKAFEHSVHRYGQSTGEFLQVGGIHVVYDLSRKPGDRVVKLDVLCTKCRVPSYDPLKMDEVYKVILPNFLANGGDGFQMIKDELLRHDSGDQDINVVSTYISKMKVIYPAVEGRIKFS
Briefly: CD73 Cell-Based Assay. The following applies: U138 cells, AMP substrate, 2 hours at 37° C., inorganic phosphate by malachite green. The method, boiled down:
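Whole U138 cells washed free of phosphate were incubated with 200 μM AMP (mixture concentration before equal-volume addition) plus compound in HEPES-buffered saline, pH 7.4, for 2 h at 37 °C, 5% CO2. Adenosine-forming activity read as inorganic phosphate released into supernatant by malachite green.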

Assay [2] has as its target T2, Human CD73 (Homo sapiens, UniProt P21589).
T2 construct: purchased R&D Systems; host or cells: CHO cells
T2 sequence (P21589 27-549): T1 sequence (P21589 27-549)
The assay is described as follows: CD73 Enzyme Assay. Format: biochemical. The following applies: 0.25 nM hCD73, 25 μM AMP, kinetic read at 360 nm; read-out: CD73 Enzyme Assay IC50.

`O=P(O)(O)COC[C@H]1O[C@@H](n2ncc3c(NC4CC5CC5C4)nc(Cl)nc32)[C@H](O)[C@@H]1O` (stereo partly drawn) [Compound 279, [(2R,3S,4R,5R)-5-[4-(3-bicyclo[3.1.0]hexa-nylamino)-6-chloro-pyrazolo[3,4-d]-pyrimidin-1-yl]-3,4-dihydroxy-tetrahydro-furan-2-yl]methoxy-methylphosphonic acid]: the IC50 in assay [1] and in assay [2] was below 10 nM throughout.
For the compound `CC(C)Nc1nc(Cl)nc2c1ccn2[C@@H]1O[C@H](COCP(=O)(O)O)[C@@H](O)[C@H]1O` [Compound 92, [(2R,3S,4R,5R)-5-[2-chloro-4-(isopropyl-amino)pyrrolo[2,3-d]-pyrimidin-7-yl]-3,4-dihydroxy-tetrahydro-furan-2-yl]methoxy-methylphosphonic acid], the IC50 in assay [1] and in assay [2] was below 10 nM each time.
With `N#Cc1nc(N2CCC(F)(F)C2)c2cnn([C@@H]3O[C@H](CS(=O)(=O)CP(=O)(O)O)[C@@H](O)[C@H]3O)c2n1` [Compound 293, [(2S,3S,4R,5R)-5-[6-cyano-4-(3,3-difluoro-pyrrolidin-1-yl)-pyrazolo[3,4-d]-pyrimidin-1-yl]-3,4-dihydroxy-tetrahydro-furan-2-yl]methyl-sulfonylmethylphos-phonic acid], the IC50 in assay [1] and in assay [2] was 10 to 100 nM each time.
For `N#Cc1nc(NC2CCC(F)(F)CC2)c2ccn([C@@H]3O[C@H](COCP(=O)(O)O)[C@@H](O)[C@H]3O)c2n1` [Compound 142, [(2R,3S,4R,5R)-5-[2-cyano-4-[(4,4-difluoro-cyclohexyl)amino]-pyrrolo[2,3-d]-pyrimidin-7-yl]-3,4-dihydroxy-tetrahydro-furan-2-yl]methoxy-methylphosphonic acid], the IC50 in assay [1] and in assay [2] was below 10 nM in each case.
Regarding `CC(C)OP(=O)(O)CS(=O)(=O)C[C@H]1O[C@@H](n2ccc3c(NC4CCCC4)nc(Cl)nc32)[C@H](O)[C@@H]1O` [Compound 160, [(2S,3S,4R,5R)-5-[2-chloro-4-(cyclo-pentylamino)pyrrolo-[2,3-d]pyrimidin-7-yl]-3,4-dihydroxy-tetrahydrofuran-2-yl]methylsulfonyl-methyl-isopropoxy-phosphinic acid], the IC50 in assay [1] and in assay [2] was 100 to 1000 nM each time.
For the compound `O=P(O)(O)COC[C@H]1O[C@@H](n2ccc3c(NC4CCCC4)nc(Oc4cccnc4)nc32)[C@H](O)[C@@H]1O` [Compound 248, [(2R,3S,4R,5R)-5-[4-(cyclopentylamino)-2-(3-pyridyloxy)pyrrolo-[2,3-d]pyrimidin-7-yl]-3,4-dihydroxy-tetra-hydrofuran-2-yl]meth-oxymethylphosphonic acid], the IC50 in assay [1] and in assay [2] was 100 to 1000 nM each time.
With `O=P(O)(O)COC[C@H]1O[C@@H](n2ccc3c(NC4CCCCC4)nc(Cl)nc32)[C@H](O)[C@@H]1O` [Compound 111, [(2R,3S,4R,5R)-5-[2-chloro-4-(cyclohexyl-amino)pyrrolo[2,3-d]-pyrimidin-7-yl]-3,4-dihydroxy-tetrahydro-furan-2-yl]methoxy-methylphosphonic acid], the IC50 in assay [1] and in assay [2] was below 10 nM in each case.
Regarding `O=P(O)(O)COC[C@H]1O[C@@H](n2ccc3c(NC4CC5CC5C4)nc(Cl)nc32)[C@H](O)[C@@H]1O` (stereo partly drawn) [Compound 102, [(2R,3S,4R,5R)-5-[4-(3-bicyclo[3.1.0]-hexanylamino)-2-chloro-pyrrolo[2,3-d]-pyrimidin-7-yl]-3,4-dihydroxy-tetrahydro-furan-2-yl]methoxy-methylphosphonic acid], the IC50 in assay [1] and in assay [2] was below 10 nM in each case.
Consider `Cc1ccc([C@@H](C)Nc2nc(Cl)nc3c2ccn3[C@@H]2O[C@H](COCP(=O)(O)O)[C@@H](O)[C@H]2O)cc1` [Compound 136, [(2R,3S,4R,5R)-5-[2-chloro-4-[[(1R)-1-(p-tolyl)ethyl]amino]-pyrrolo[2,3-d]-pyrimidin-7-yl]-3,4-dihydroxy-tetrahydro-furan-2-yl]methoxy-methylphosphonic acid], for which the IC50 in assay [1] and in assay [2] was below 10 nM in each case.
Take `Cc1ccc([C@H](C)Nc2nc(Cl)nc3c2ccn3[C@@H]2O[C@H](COCP(=O)(O)O)[C@@H](O)[C@H]2O)cc1` [Compound 90, [(2R,3S,4R,5R)-5-[2-chloro-4-[[(1S)-1-(p-tolyl)ethyl]amino]-pyrrolo[2,3-d]-pyrimidin-7-yl]-3,4-dihydroxy-tetrahydro-furan-2-yl]methoxy-methylphosphonic acid]: the IC50 in assay [1] and in assay [2] was below 10 nM throughout.
On to `O=P(O)(O)COC[C@H]1O[C@@H](n2ccc3c(NC4CCCC4)nc(C(F)(F)F)nc32)[C@H](O)[C@@H]1O` [Compound 231, [(2R,3S,4R,5R)-5-[4-(cyclopentylamino)-2-(trifluoromethyl)-pyrrolo[2,3-d]-pyrimidin-7-yl]-3,4-dihydroxy-tetrahydro-furan-2-yl]methoxy-methylphosphonic acid], for which the IC50 in assay [1] and in assay [2] was 10 to 100 nM each time.
For `CC(C)(C)C(=O)OCOP(=O)(COC[C@H]1O[C@@H](n2ccc3c(N4CC5CCCC5C4)nc(Cl)nc32)[C@H](O)[C@@H]1O)OCOC(=O)C(C)(C)C` (stereo partly drawn) [Compound 203, [[(2R,3S,4R,5R)-5-[4-(3,3a,4,5,6,6a-hexa-hydro-1H-cyclopenta-[c]pyrrol-2-yl)-2-chloro-pyrrolo[2,3-d]-pyrimidin-7-yl]-3,4-dihydroxy-tetrahydro-furan-2-yl]methoxy-methyl-(2,2-dimethyl-propanoyloxymethoxy)-phosphoryl]oxymethyl 2,2-dimethylpropanoate], the figures for the IC50 in assay [1] and in assay [2] were 10 to 100 nM and 100 to 1000 nM, respectively.
In the case of `O=P(O)(O)CP(=O)(O)OC[C@H]1O[C@@H](n2ccc3c(NC4CCCC4)nc(Cl)nc32)[C@H](O)[C@@H]1O` [Compound 229], the IC50 in assay [1] and in assay [2] was below 10 nM in each case.
Take `CC(C)C(=O)COP(=O)(O)COC[C@H]1O[C@@H](n2ccc3c(NC4CCCC4)nc(Cl)nc32)[C@H](O)[C@@H]1O` [Compound 222, [(2R,3S,4R,5R)-5-[2-chloro-4-(cyclopentyl-amino)pyrrolo[2,3-d]-pyrimidin-7-yl]-3,4-dihydroxy-tetrahydro-furan-2-yl]methoxy-methyl-(3-methyl-2-oxo-butoxy)phosphinic acid]: the IC50 in assay [1] and in assay [2] was 100 to 1000 nM each time.
For `C[C@H](Nc1nc(Cl)nc2c1ccn2[C@@H]1O[C@H](CS(=O)(=O)CP(=O)(O)O)[C@@H](O)[C@H]1O)c1ccc(F)cc1F` [Compound 183, [(2S,3S,4R,5R)-5-[2-chloro-4-[[(1S)-1-(2,4-difluorophenyl)ethyl]-amino]pyrrolo[2,3-d]-pyrimidin-7-yl]-3,4-dihydroxy-tetrahydro-furan-2-yl]methyl-sulfonylmethylphos-phonic acid], the IC50 in assay [1] and in assay [2] was below 10 nM in each case.
Take `N#Cc1nc(N2CC3CC3C2)c2cnn([C@@H]3O[C@H](CS(=O)(=O)CP(=O)(O)O)[C@@H](O)[C@H]3O)c2n1` (stereo partly drawn) [Compound 288, [(2S,3S,4R,5R)-5-[4-(3-azabicyclo[3.1.0]-hexan-3-yl)-6-cyano-pyrazolo[3,4-d]-pyrimidin-1-yl]-3,4-dihydroxy-tetrahydro-furan-2-yl]methyl-sulfonylmethylphos-phonic acid]: the IC50 in assay [1] and in assay [2] was 10 to 100 nM each time.
Take `C[C@H](Nc1nc(Cl)nc2c1ccn2[C@@H]1O[C@H](CS(=O)(=O)CP(=O)(O)O)[C@@H](O)[C@H]1O)c1ccccc1` [Compound 153, [(2S,3S,4R,5R)-5-[2-chloro-4-[[(1S)-1-phenylethyl]amino]-pyrrolo[2,3-d]-pyrimidin-7-yl]-3,4-dihydroxy-tetrahydro-furan-2-yl]methyl-sulfonylmethylphos-phonic acid]: the 50% inhibitory concentration (IC50) was 10 to 100 nM in assay [1] and below 10 nM in assay [2].
As to `O=P(O)(O)COC[C@H]1O[C@@H](n2ncc3c(N4CC5CCCC5C4)nc(Cl)nc32)[C@H](O)[C@@H]1O` (stereo partly drawn) [Compound 274, [(2R,3S,4R,5R)-5-[4-(3,3a,4,5,6,6a-hexa-hydro-1H-cyclopenta-[c]pyrrol-2-yl)-6-chloro-pyrazolo[3,4-d]-pyrimidin-1-yl]-3,4-dihydroxy-tetrahydro-furan-2-yl]methoxy-methylphosphonic acid], the IC50 in assay [1] and in assay [2] was below 10 nM each time.
As to `C[C@H](Nc1nc(Cl)nc2c1ncn2[C@@H]1O[C@H](CS(=O)(=O)CP(=O)(O)O)[C@@H](O)[C@H]1O)c1ccccc1` [Compound 152, [(2S,3S,4R,5R)-5-[2-chloro-6-[[(1S)-1-phenylethyl]amino]-purin-9-yl]-3,4-dihydroxy-tetrahydro-furan-2-yl]methyl-sulfonylmethylphos-phonic acid], the IC50 in assay [1] and in assay [2] was 10 to 100 nM in each case.

The values are drawn from US11591355B2 (Peloton Therapeutics, Inc., priority 2017, dated 2023).
